# According to patent US20240374655A1, “INTESTINAL MICROBIOTA AND GVHD” (Memorial Sloan-Kettering Cancer Center, priority 2014, published 2024):
# “Also recorded” adds a separate entry of the source.
# Columns and labels:
# [1] = test system: murine Blautia; experiment: In vitro suppression of Blautia by L. johnsonii / Lacto-conditioned media and rescue by reducing agents; type: cell-based; conditions: reducing agent added in the presence of Lacto-conditioned media
# Description: A) Murine Blautia was grown in peptone yeast glucose broth either alone, or with murine L. johnsonii in conditions of limited media or ample media, and viable colonies were quantified. B) L. johnsonii was allowed to grow in media to plateau phase, then sterile filtered to generate Lacto-conditioned media. Effects of Lacto-conditioned media on the viability of L. johnsonii and murine Blautia were evaluated when mixed with fresh media in a 1:1 ratio. Effects of the addition of 3 reducing agents indicated was also evaluated.
# From studying the effects of calorie restriction on intestinal microbiota composition it was observed that obligate anaerobes (Clostridia, Bacteroidetes) are reduced in abundance while facultative anaerobes (Lactobacillos, Proteobacteria) expand. Production of free radicals by E. coli in the setting of starvation has been described previously (Saby S, et al. Appl Environ Microbiol. 1999; 5600-5603). Experiments were designed to examine in vitro if Lactobacillus johnsonii could suppress the growth of our murine Blautia isolate under starvation conditions, and to further investigate if production of free radicals could be a contributing factor. […] The effects of media that had supported the growth of L. johnsonii to plateau phase were further investigated following sterile filtration. […] It was then examined if reducing agents could rescue Blautia from Lacto-conditioned-media-mediated suppression.
# [2] = test system: intestinal microbiota (Clostridiales, Enterococcus); experiment: Flora composition (16S rRNA sequencing of stool) after antibiotic treatment of healthy mice; type: in vivo, C57BL/6 mice; conditions: 100 mg/kg SC twice a day for two days
# Description: (§1) FIGS. 16A-16J Imipenem treatment, compared to aztreonam treatment, suppresses anaerobic commensals and elevates GVHD severity in mice. (A) Flora composition analysis using 16S rRNA sequencing prior to and after treatment with the indicated antibiotics in healthy C57BL/6 mice. Mice were treated with subcutaneous (SC) injections of each antibiotic twice a day for two days (500 mg/kg for pip/tazo and 100 mg/kg for others) and stool samples were collected the following day. Values represent mean±SEM (n=3-4). *, P<0.05; **, P<0.01; ****, P<0.0001. Data are representative of two independent experiments. (B to J) Lethally irradiated 129S1 recipients were transplanted with MHC matched C57BL/6 T-cell depleted bone marrow (TCD-BM) cells and 1×10^6 C57BL/6 T cells. Control mice received TCD-BM only. Recipients were treated with imipenem or aztreonam (100 mg/kg, SC, 3 times a week from day 10 to day 24 following allo-HSCT). (B) Comparison of overall survival, with combined data from three independent experiments (n=15-43). ****, P<0.0001. (C) Mice with GVHD treated with antibiotics were sacrificed on day 21 and GVHD histology scores in target organs were quantified by a blinded pathologist. Data are combined from three independent experiments (n=5-20). *, P<0.05. (D) Stool samples obtained from mice treated with imipenem or aztreonam similarly to those in B were collected on day 21 and analyzed by 16S rRNA gene sequencing, followed by principal coordinate analysis of weighted and normalized UniFrac distances. (E and F) Differential taxonomic abundance between aztreonam treated and imipenem treated recipients was analyzed by (E) linear discriminate analysis coupled with effect size measurements (LEfSe) and (F) by LEfSe projected as a cladogram. Data are representative from more than five independent experiments in D to F. (G and H) Comparisons of bacterial abundance at the phylogenetic levels of (G) order, and (H) genus are shown. Data are combined from 6 independent experiments (n=32-36). ***, P<0.001. (I) Stool samples collected from mice with GVHD treated with antibiotics were collected on day 21, and evaluated by metagenomic shotgun sequence analysis, comparison of bacterial species abundance determined by taxonomy. Numbers 1 through 6 along the x-axis represent the individual subjects. (J) Principal component analysis of quantification of sequence reads from KEGG gene orthologs comparing samples from mice treated with aztreonam and imipenem.
# To further explore causality and mechanisms of the effects of antibiotics with anaerobic activity on GVHD, we turned to experiments in mice. […] Mice were treated by subcutaneous (SC) injections of each antibiotic twice a day for two days (500 mg/kg for pip/tazo and 100 mg/kg for others) and stool samples were collected, followed by 16S rRNA gene amplification and sequence analysis.
# [3] = test system: Lactobacillus johnsonii of C57BL/6 origin; experiment: Sugar fermentation by bacterial isolate (pH and optical density in media lacking glucose); type: cell-based
# Description: (§2) Utilizing Blautia isolate of C57BL/6 origin, as well as a Lactobacillus johnsonii of C57BL/6 origin, the ability of these bacteria to ferment a variety of sugars was evaluated using pH and optical density to evaluate bacterial growth in media lacking glucose. Lactobacillus johnsonii was evaluated because this bacteria expands in the setting of calorie restriction at the expense of Clostridia, and is thus presumably a direct competitor for nutrients in the murine intestine.
# [4] = test system: Blautia isolate of C57BL/6 origin; experiment: as above; type: cell-based
# Description: as §2
# [5] = Sugars in drinking water to augment Blautia and mitigate experimental GVHD; type: in vivo, C57BL/6 mice; conditions: for GVHD severity / survival of mice with GVHD: 10 g/L in drinking water beginning one week before BMT
# Description: Left: Intestinal abundance of Blautia was evaluated on day 14 after BMT, results of a single experiment. Right: Mice were followed for development of clinical GVHD (combined results of 2 experiments).
# Mice were followed for development of clinical GVHD (combined results of 3 experiments).
# C57BL/6 mice were inoculated orally with a murine Blautia isolate known to ferment xylose. Some mice were then administered xylose in the drinking water (10 g/L) beginning 7 days prior to BMT with B10.BR BM and T cells.
# [6] = test system: 17 strains from a clostridial mix; experiment: Growth of strains from a clostridial mix in BHI media without glucose with added sugars; type: cell-based, Clostridia; conditions: BHI media without glucose plus sugar
# Description: Glucose gave the best results and was able to support the growth of 10 of the total 17 strains. Glucose, however would have limited benefit since it likely doesn't give a selective advantage to the beneficial bacteria. Raffinose was able to support 5 strains, while cellobiose appeared to support 4 strains not supported by raffinose. In one embodiment, therefore, a mixture of raffinose and cellobiose can be administered to a subject to provide support for at least a portion of the beneficial bacteria.
# [7] = Antibiotic treatment in MHC-matched minor antigen-mismatched allo-HSCT GVHD model (C57BL/6 into 129S1); type: in vivo; conditions: mouse, in vivo
# Description: as §1, with “Data are representative from more than five independent experiments in D to F. (G and H) Comparisons of bacterial abundance at the phylogenetic levels of (G) order, and (H) genus are shown. Data are combined from 6 independent experiments (n=32-36). ***, P<0.001.” left out, “Numbers 1 through 6 along the x-axis represent the individual subjects.” left out
# (A to G) Lethally irradiated 129S1 recipients were transplanted with C57BL/6 TCD-BM cells with 1×10^6 C57BL/6 T cells. […] (A) Colonic lamina propria-infiltrating leukocytes from recipients were analyzed on day 21 by flow cytometry. […] (C) Lamina propria-infiltrating leukocytes from the colon on day 21 were enriched for CD11b and CD11e simultaneously using a mixture of magnetic beads and IL-23 transcripts were quantified by real time PCR. […] (D) Immunofluorescent staining was used to quantify pSTAT3, CD3, and DAPI positive cells in colonic tissue collected on day 21. […]
# [8] = test system: Clostridiales; experiment: Change in Clostridiales abundance in paired stool samples of allo-HSCT patients before and after starting antibiotics; type: in vivo, human; conditions: before vs after starting the antibiotic; compared to aztreonam
# Description: (A) A retrospective cohort was identified of 283 adult patients who received non-T cell depleted allo-HSCT at our center from 1994 to 2013 and received antibiotics for neutropenic fever. Patients were stratified by exposure to antibiotics with significant activity against anaerobes. Outcomes indicated were depicted by Kaplan-Meier plots and curves compared by the logrank test. (B to G) Six representative clinical cases with time courses depicted of fecal microbiota composition and administration of antibiotic treatments during the course of allo-HSCT. […] (H) Change in abundance of Clostridiales in paired fecal samples from patients undergoing allo-HSCT collected prior to and following treatment with the indicated antibiotics.
# For each stool specimen, DNA was purified using a phenol-chloroform extraction technique with mechanical disruption (bead-beating) based on a previously described protocol (60). Samples were analyzed using the 454 GS FLX Titanium platform to sequence the V1-V3 region of the bacterial 16S rRNA gene or were alternatively analyzed using the Illumina MiSeq platform to sequence the V4-V5 region of the 16S rRNA gene. Sequence data were compiled and processed using mothur version 1.34 (61), screened and filtered for quality (62). Operational taxonomic units (OTUs) were classified to the species level (63) using a modified form of the Greengenes reference database (64). Principal component analysis was performed upon a weighted and normalized Unifrac (65) distance matrix of OTU abundance in R software. Data from this study has been stored in the NCBI Sequence Read Archive (see url: www.ncbi.nlm.nih.gov/sra).
# HSCT patients were on intestinal bacterial composition. In 2009, our center began to prospectively collect weekly stool samples from patients undergoing allo-HSCT. From this specimen bank, we identified paired stool samples collected from patients prior to as well as following initiation of specific antibiotics during the course of allo-HSCT. […]
compound,measurement,setting,value
O=C1O[C@H]([C@@H](O)CO)C(O)=C1O [ascorbic acid],Rescue of Blautia growth from Lacto-conditioned-media-mediated suppression,[1],able to support Blautia growth
CO/N=C(\C(=O)N[C@@H]1C(=O)N2C(C(=O)[O-])=C(C[N+]3(C)CCCC3)CS[C@H]12)c1csc(N)n1 [cefepime],Abundance of Clostridiales in stool,[2],spared Clostridiales
O=C[C@H](O)[C@@H](O)[C@H](O)CO [xylose],Fermentation of sugar by Lactobacillus,[3],not by Lactobacillus
same,Fermentation of sugar by Blautia,[4],fermented by Blautia
same,GVHD severity / survival of mice with GVHD,[5],improved survival; also recorded: reduced GVHD severity
same,Intestinal abundance of Blautia,"[5]; 10 g/L in drinking water from 7 days before BMT, day 14 after BMT, 16S deep sequencing",expansion of Blautia; also recorded: increased abundance
O=C[C@H](O)[C@@H](O)[C@H](O[C@@H]1O[C@H](CO)[C@@H](O)[C@H](O)[C@H]1O)[C@H](O)CO [cellobiose],Number of strains supported that are not supported by raffinose,[6],4 strains
O=C([O-])CS.[Na+] [sodium thioglycolate],Rescue of Blautia growth from Lacto-conditioned-media-mediated suppression,[1],able to support Blautia growth
OC[C@H]1O[C@H](OC[C@H]2O[C@H](O[C@]3(CO)O[C@H](CO)[C@@H](O)[C@@H]3O)[C@H](O)[C@@H](O)[C@@H]2O)[C@H](O)[C@@H](O)[C@H]1O [raffinose],Number of strains whose growth is supported,[6]; of the total 17 strains,5 strains
same,GVHD severity / survival of mice with GVHD,[5],reduces GVHD severity
N[C@@H](CS)C(=O)O [L-cysteine],Rescue of Blautia growth from Lacto-conditioned-media-mediated suppression,[1],able to support Blautia growth
C[C@H]1[C@H](NC(=O)/C(=N\OC(C)(C)C(=O)O)c2csc(N)n2)C(=O)N1S(=O)(=O)O [aztreonam],Bacteria past the colonic epithelial barrier,[7],not seen
same,Change in Clostridiales abundance in stool of patients,[8],relative preservation of Clostridiales abundances
same,Abundance of Clostridiales in stool,[2],spared Clostridiales
C[C@H](O)[C@H](O)[C@@H](O)[C@@H](O)C=O [rhamnose],Fermentation of sugar by Lactobacillus,[3],not by Lactobacillus
same,Fermentation of sugar by Blautia,[4],fermented by Blautia
